Literature values as cited in patent US20170056463A1, “COMPOSITIONS AND METHODS FOR TREATING DIABETES” (priority 2015, published 2017).

Experiments:
[1] = tested on: phosphotyrosine phosphatase
[2] = tested on: HSV (herpes simplex virus)
[3] = not given; remark: listed apart in the source

**Q.** With `[Cr]` [Chromium, chromium] as the compound, how does the phosphotyrosine phosphatase activity [1] read?
**A.** The phosphotyrosine phosphatase activity was “inhibit”.

**Q.** For `COc1ccc2cc3[n+](cc2c1OC)CCc1cc2c(cc1-3)OCO2` [berberine], which “levels of fasting blood sugar” value (after oral supplementation with the herbal extract of berberine, patients with pre-diabetes and diabetes) is on record?
**A.** The value was “normalize”.

**Q.** And the “lowering of blood glucose” value (doses of about 1,000 mg daily, compared with metformin)?
**A.** The value was “as effectively as metformin”.

**Q.** And the cholesterol ratios (previous investigations)?
**A.** The cholesterol ratios was “improved”.

**Q.** What about the “hemoglobin A1c (HbA1c)” value (previous investigations) of the same compound?
**A.** Its value is “significant reduction”.

**Q.** And the “growth of HSV” value [2]?
**A.** Its value is “inhibits growth”.

**Q.** Which results are given for `[Zn]` [zinc]?
**A.** blood glucose levels ([3]; 2 hour post-prandial measurements in people treated with zinc): reduced; systolic and diastolic blood pressures ([3]; after zinc supplementation): significant reduction
